Several values for one entry are separate records, joined by “and”; a condition that tells them apart may be missing. Identical values can stand only once. Inconclusive results and toxic doses are left out.
Tested on: BDF1 mice, B16 melanoma ip, median survival T/C
Assay: NCI In Vivo Anticancer Drug Screen. Data for tumor model B16 Melanoma (intraperitoneal) in B6D2F1 (BDF1) mice
Conditions: endpoint: median survival time, higher = longer survival
Procedure, shortened: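 Survival or tumor size is measured after treatment of tumor-bearing mice and normalised to the vehicle-treated control group.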

[1] = dose: 12.5 mg/kg/injection, schedule: Q01DX009 (ip), vehicle: saline with Tween-80
[2] = dose: 25.0 mg/kg/injection, schedule: Q01DX009 (ip), vehicle: saline with Tween-80
[3] = dose: 50.0 mg/kg/injection, schedule: Q01DX009 (ip), vehicle: saline with Tween-80
[4] = dose: 12.5 mg/kg/injection, schedule: Q01DX009 (ip), vehicle: Klucel (hydroxypropylcellulose) (HPC)
[5] = dose: 25.0 mg/kg/injection, schedule: Q01DX009 (ip), vehicle: Klucel (hydroxypropylcellulose) (HPC)
[6] = dose: 100.0 mg/kg/injection, schedule: Q01DX009 (ip), vehicle: Klucel (hydroxypropylcellulose) (HPC)
[7] = dose: 200.0 mg/kg/injection, schedule: Q01DX009 (ip), vehicle: Klucel (hydroxypropylcellulose) (HPC)
[8] = dose: 50.0 mg/kg/injection, schedule: Q01DX009 (ip), vehicle: Klucel (hydroxypropylcellulose) (HPC)
[9] = dose: 400.0 mg/kg/injection, schedule: Q01DX009 (ip), vehicle: Klucel (hydroxypropylcellulose) (HPC)

OCCN1CCN(CC/C=C2/c3ccccc3Sc3ccc(C(F)(F)F)cc32)CC1
T/C (dose: 0.25 mg/kg/injection, schedule: Q01DX009 (ip), vehicle: saline): 97 % of control | T/C (dose: 0.5 mg/kg/injection, schedule: Q01DX009 (ip), vehicle: saline): 106 % of control | T/C (dose: 1.0 mg/kg/injection, schedule: Q01DX009 (ip), vehicle: saline): 111 % of control | T/C (dose: 2.0 mg/kg/injection, schedule: Q01DX009 (ip), vehicle: saline): 105 % of control

Nc1ccc(S(=O)(=O)N/N=C/c2ccccc2[N+](=O)[O-])cc1
T/C (dose: 3.13 mg/kg/injection, schedule: Q01DX009 (ip), vehicle: saline with Tween-80): 115 % of control | T/C (dose: 6.25 mg/kg/injection, schedule: Q01DX009 (ip), vehicle: saline with Tween-80): 96 % of control and 123 % of control | T/C [1]: 99 % of control and 122 % of control | T/C [2]: 105 % of control | T/C [3]: 118 % of control

CCOC(=O)/C=C(\CBr)OC
T/C [4]: 105 % of control | T/C [5]: 93 % of control

C[C@H]1C[C@@H]2[C@H]([C@@H](O)C[C@@]3(C)[C@H]2CC[C@]3(O)C(=O)CO)[C@@]2(C)C=CC(=O)C=C12
T/C (dose: 6.25 mg/kg/injection, schedule: Q01DX009 (ip), vehicle: Klucel (hydroxypropylcellulose) (HPC)): 115 % of control | T/C [4]: 115 % of control | T/C [5]: 117 % of control | T/C [6]: 116 % of control | T/C [7]: 112 % of control

NC(Cn1ccc(=O)c(O)c1)C(=O)O (stereo not given)
T/C (dose: 50.0 mg/kg/injection, schedule: Q01DX009 (ip), vehicle: saline): 109 % of control | T/C (dose: 100.0 mg/kg/injection, schedule: Q01DX007 (ip), vehicle: saline with Tween-80): 98 % of control | T/C (dose: 100.0 mg/kg/injection, schedule: Q01DX009 (ip), vehicle: saline): 107 % of control | T/C (dose: 200.0 mg/kg/injection, schedule: Q01DX007 (ip), vehicle: saline with Tween-80): 88 % of control | T/C (dose: 200.0 mg/kg/injection, schedule: Q01DX009 (ip), vehicle: saline): 109 % of control | T/C (dose: 294.0 mg/kg/injection, schedule: Q01DX007 (ip), vehicle: saline with Tween-80): 117 % of control | T/C (dose: 300.0 mg/kg/injection, schedule: Q01DX007 (ip), vehicle: saline with Tween-80): 86 % of control | T/C (dose: 367.5 mg/kg/injection, schedule: Q01DX007 (oral), vehicle: saline with Tween-80): 103 % of control | T/C (dose: 420.0 mg/kg/injection, schedule: Q01DX007 (ip), vehicle: saline with Tween-80): 96 % of control | T/C (dose: 525.0 mg/kg/injection, schedule: Q01DX007 (oral), vehicle: saline with Tween-80): 96 % of control | T/C (dose: 750.0 mg/kg/injection, schedule: Q01DX007 (oral), vehicle: saline with Tween-80): 98 % of control

Cc1cc(C)cc(OCC2CNC(=O)O2)c1 (stereo not given)
T/C [5]: 94 % of control | T/C [8]: 108 % of control | T/C [6]: 91 % of control | T/C [7]: 94 % of control | T/C [9]: 100 % of control

COc1cc2cnccc2cc1O
T/C (dose: 12.5 mg/kg/injection, schedule: Q01DX009 (ip), vehicle: water): 104 % of control | T/C (dose: 25.0 mg/kg/injection, schedule: Q01DX009 (ip), vehicle: water): 102 % of control | T/C (dose: 50.0 mg/kg/injection, schedule: Q01DX009 (ip), vehicle: water): 103 % of control | T/C (dose: 100.0 mg/kg/injection, schedule: Q01DX009 (ip), vehicle: water): 109 % of control

CC([NH-])C[NH-].[Cl][Pt+2][Cl] (stereo not given)
T/C (dose: 0.31 mg/kg/injection, schedule: Q01DX009 (ip), vehicle: saline): 102 % of control | T/C (dose: 0.31 mg/kg/injection, schedule: Q04DX003 (ip), vehicle: saline): 89 % of control | T/C (dose: 0.62 mg/kg/injection, schedule: Q01DX009 (ip), vehicle: saline): 112 % of control | T/C (dose: 0.62 mg/kg/injection, schedule: Q04DX003 (ip), vehicle: saline): 100 % of control | T/C (dose: 1.25 mg/kg/injection, schedule: Q01DX009 (ip), vehicle: saline): 110 % of control | T/C (dose: 1.25 mg/kg/injection, schedule: Q04DX003 (ip), vehicle: saline): 107 % of control

CS(=O)(=O)Nc1ccccc1N
T/C (dose: 1.56 mg/kg/injection, schedule: Q01DX009 (ip), vehicle: saline): 95 % of control | T/C (dose: 3.12 mg/kg/injection, schedule: Q01DX009 (ip), vehicle: saline): 99 % of control | T/C (dose: 6.25 mg/kg/injection, schedule: Q01DX009 (ip), vehicle: saline): 98 % of control

O=C1NC(C2CCC3CN32)C(=O)NC1C1CCC2CN21 (stereo not given)
T/C (dose: 0.05 mg/kg/injection, schedule: Q01DX009 (ip), vehicle: saline): 102 % of control | T/C (dose: 0.1 mg/kg/injection, schedule: Q01DX009 (ip), vehicle: saline): 107 % of control | T/C (dose: 0.2 mg/kg/injection, schedule: Q01DX009 (ip), vehicle: saline): 108 % of control | T/C (dose: 0.4 mg/kg/injection, schedule: Q01DX009 (ip), vehicle: saline): 115 % of control

Cc1ccc2c(c1)CC(C)([CH2][Hg][Cl])O2 (stereo not given)
T/C (dose: 0.75 mg/kg/injection, schedule: Q01DX009 (ip), vehicle: Klucel (hydroxypropylcellulose) (HPC)): 100 % of control | T/C (dose: 0.75 mg/kg/injection, schedule: Q04DX003 (ip), vehicle: Klucel (hydroxypropylcellulose) (HPC)): 95 % of control | T/C (dose: 1.5 mg/kg/injection, schedule: Q01DX009 (ip), vehicle: Klucel (hydroxypropylcellulose) (HPC)): 93 % of control | T/C (dose: 1.5 mg/kg/injection, schedule: Q04DX003 (ip), vehicle: Klucel (hydroxypropylcellulose) (HPC)): 100 % of control | T/C (dose: 3.0 mg/kg/injection, schedule: Q01DX009 (ip), vehicle: Klucel (hydroxypropylcellulose) (HPC)): 92 % of control and 95 % of control | T/C (dose: 3.0 mg/kg/injection, schedule: Q04DX003 (ip), vehicle: Klucel (hydroxypropylcellulose) (HPC)): 93 % of control and 95 % of control

O=C(Nc1ccccc1)Oc1ccc(OCc2ccccc2)cc1
T/C [1]: 96 % of control | T/C [2]: 93 % of control | T/C [3]: 92 % of control

COc1cc2c(cc1OC)C(CCc1ccc(Cl)cc1)N(C)CC2 (stereo not given)
T/C [5]: 88 % of control | T/C [8]: 93 % of control | T/C [6]: 98 % of control | T/C [7]: 93 % of control

CC/C(C)=C(/C(=O)O)c1ccccc1
T/C (dose: 100.0 mg/kg/injection, schedule: Q01DX009 (ip), vehicle: saline with Tween-80): 110 % of control | T/C (dose: 200.0 mg/kg/injection, schedule: Q01DX009 (ip), vehicle: saline with Tween-80): 94 % of control

Cc1cc2c(c(O)c1CN1CCOCC1)C1=C(CCCC1)C(C)(C)O2
T/C (dose: 32.0 mg/kg/injection, schedule: Q01DX009 (ip), vehicle: Klucel (hydroxypropylcellulose) (HPC)): 108 % of control | T/C (dose: 64.0 mg/kg/injection, schedule: Q01DX009 (ip), vehicle: Klucel (hydroxypropylcellulose) (HPC)): 98 % of control | T/C (dose: 128.0 mg/kg/injection, schedule: Q01DX009 (ip), vehicle: Klucel (hydroxypropylcellulose) (HPC)): 93 % of control | T/C (dose: 256.0 mg/kg/injection, schedule: Q01DX009 (ip), vehicle: Klucel (hydroxypropylcellulose) (HPC)): 103 % of control

CCNC(C)(C)C(SSS)c1ccco1 (stereo not given)
T/C [4]: 98 % of control | T/C [5]: 94 % of control | T/C [8]: 104 % of control

COc1ccccc1OCC(O)COC(N)=O (stereo not given)
T/C [5]: 94 % of control | T/C [8]: 91 % of control | T/C [6]: 105 % of control | T/C [7]: 100 % of control | T/C [9]: 105 % of control

CC(=O)O[C@]1(C(C)=O)CC[C@H]2[C@@H]3C[C@H](C)C4=CC(=O)CC[C@]4(C)[C@H]3CC[C@@]21C
T/C [4]: 120 % of control | T/C [5]: 117 % of control | T/C [8]: 100 % of control | T/C [6]: 96 % of control | T/C [7]: 89 % of control | T/C [9]: 96 % of control | T/C (dose: 800.0 mg/kg/injection, schedule: Q01DX009 (ip), vehicle: Klucel (hydroxypropylcellulose) (HPC)): 89 % of control

CC12NC(=O)NC1(C)NC(=O)N2 (stereo not given)
T/C (dose: 100.0 mg/kg/injection, schedule: Q04DX003 (ip), vehicle: saline with Tween-80): 100 % of control

CO[C@@]12[C@@H]3N[C@@H]3CN1C1=C(C(=O)C(NCc3ccco3)=C(C)C1=O)[C@@H]2COC(N)=O
T/C (dose: 0.13 mg/kg/injection, schedule: Q01DX001 (ip), vehicle: distilled water + Tween-80): 96 % of control | T/C (dose: 0.25 mg/kg/injection, schedule: Q01DX001 (ip), vehicle: distilled water + Tween-80): 101 % of control | T/C (dose: 0.5 mg/kg/injection, schedule: Q01DX001 (ip), vehicle: distilled water + Tween-80): 111 % of control | T/C (dose: 1.0 mg/kg/injection, schedule: Q01DX001 (ip), vehicle: distilled water + Tween-80): 123 % of control | T/C (dose: 6.0 mg/kg/injection, schedule: Q04DX003 (ip), vehicle: distilled water + Tween-80): 205 % of control | T/C (dose: 12.0 mg/kg/injection, schedule: Q04DX003 (ip), vehicle: distilled water + Tween-80): 305 % of control | T/C (dose: 24.0 mg/kg/injection, schedule: Q04DX003 (ip), vehicle: distilled water + Tween-80): 315 % of control

CC(=O)c1ccc(F)cc1
T/C [5]: 100 % of control | T/C [8]: 106 % of control | T/C [6]: 103 % of control | T/C [7]: 106 % of control

— PubChem BioAssay AID192 (DTP/NCI, 2004)
